The source made the active and inactive calls. No rule for the calls is given here.
Tests used:
[1] = West Nile virus antiviral cytopathic protection, dose response, cell-based, EC_3 (AID 623934); settings: West Nile virus infected cells, antiviral cytopathic protection
[2] = tested on: West Nile virus infected cells, antiviral cytopathic protection; test: as above

Cc1ccc(-n2c(SCC(=O)c3nc(-c4ccccc4)cs3)nc3ccccc3c2=O)cc1Br
inhibition ([1]; at 100 µM (top of the series)): 4.12% (inactive)

O=C(CSc1nc2ccccc2c(=O)n1-c1ccc(Cl)c(Cl)c1)Nc1nc(-c2ccccc2)cs1
inhibition ([1]; at 100 µM (top of the series)): 4.05% (inactive)

O=C(CSc1nc2cccc(F)c2c(=O)n1-c1cc(Br)c(F)cn1)Nc1ccc2c(c1)CCC2
inhibition ([1]; at 100 µM (top of the series)): 3.79% (inactive)

O=C(CSc1nc2ccccc2c(=O)n1-c1c(Cl)cccc1Cl)Nc1ccc2c(c1)CCC2
EC50 [2]: 13 µM

O=C(CSc1nc2c(F)cccc2c(=O)n1-c1ccccc1)Nc1nc(-c2ccccc2)cs1
inhibition ([1]; at 100 µM (top of the series)): 3.49% (inactive)

O=C(CSc1nc2c(Cl)cccc2c(=O)n1-c1cc(Cl)cc(Cl)c1)Nc1nc(-c2ccccc2)cs1
inhibition ([1]; at 100 µM (top of the series)): 5.19% (inactive)

O=C(CSc1nc2c(F)cccc2c(=O)n1-c1ccc(Cl)c(Cl)c1)Nc1nc(-c2ccccc2)cs1
inhibition ([1]; at 100 µM (top of the series)): 5.8% (inactive)

O=C(CSc1nc2ccccc2c(=O)n1-c1cc(F)cc(F)c1)Nc1ccc2c(c1)CCC2
EC50 [2]: 11.4 µM

O=C(CSc1nc2ccccc2c(=O)n1-c1ccccc1)Nc1ccc2c(c1)CCC2
EC50 [2]: 26.8 µM

O=C(CSc1nc2ccccc2c(=O)n1-c1ccc(Cl)c(Br)c1)Nc1ccc2c(c1)CCC2
EC50 [2]: 13.7 µM

N#Cc1ccc(-n2c(SCC(=O)Nc3ccc4c(c3)CCC4)nc3ccccc3c2=O)cc1
inhibition ([1]; at 100 µM (top of the series)): 8.15% (inactive)

O=C(CSc1nc2c(F)cccc2c(=O)n1-c1cc(Cl)cc(Cl)c1)Nc1ccc2c(c1)CCC2
EC50 [2]: 11.4 µM

O=C(CSc1nc2ccccc2c(=O)n1-c1ccc(Cl)c(Cl)c1)Nc1ccc2c(c1)CCC2
inhibition ([1]; at 100 µM (top of the series)): 24.8% (inactive)

O=C(CSc1nc2ccccc2c(=O)n1-c1ccccn1)Nc1nc(-c2ccccc2)cs1
inhibition ([1]; at 100 µM (top of the series)): 3.87% (inactive)

O=C(CSc1nc2ccccc2c(=O)n1-c1ccc(Cl)c(F)c1)Nc1ccc2c(c1)CCC2
inhibition ([1]; at 100 µM (top of the series)): 7.41% (inactive)

O=C(CSc1nc2cccc(F)c2c(=O)n1-c1ccc(Cl)c(Cl)c1)Nc1nc(-c2ccccc2)cs1
inhibition ([1]; at 100 µM (top of the series)): 3.12% (inactive)

Cc1cc(-n2c(SCC(=O)Nc3ccc4c(c3)CCC4)nc3ccccc3c2=O)ccc1F
EC50 [2]: 6.66 µM

Cc1cc(-n2c(SCC(=O)c3nc(-c4ccccc4)cs3)nc3ccccc3c2=O)ccc1Cl
inhibition ([1]; at 50 µM (top of the series)): 3.94% (inactive)

O=C(CSc1nc2ccccc2c(=O)n1-c1cc(F)cc(F)c1)c1nc(-c2ccccc2)cs1
inhibition ([1]; at 100 µM (top of the series)): 6.41% (inactive)

N#Cc1ccc(-n2c(SCC(=O)Nc3nc(-c4ccccc4)cs3)nc3ccccc3c2=O)cc1F
inhibition ([1]; at 100 µM (top of the series)): 5.78% (inactive)

Cc1ccc(-n2c(SCC(=O)Nc3ccc4c(c3)CCC4)nc3ccccc3c2=O)cc1Br
EC50 [2]: 8.28 µM

O=C(CSc1nc2ccccc2c(=O)n1-c1cc(F)c(F)cn1)Nc1ccc2c(c1)CCC2
EC50 [2]: 18.5 µM

O=C(CSc1nc2ccccc2c(=O)n1-c1cc(Cl)c(F)cn1)Nc1ccc2c(c1)CCC2
EC50 [2]: 24.4 µM

O=C(CSc1nc2ccccc2c(=O)n1-c1cc(F)cc(F)c1)Nc1nc(-c2ccccc2)cs1
inhibition ([1]; at 100 µM (top of the series)): 3.67% (inactive)

O=C(CSc1nc2c(F)cccc2c(=O)n1-c1cc(Cl)cc(Cl)c1)Nc1nc(-c2ccccc2)cs1
inhibition ([1]; at 100 µM (top of the series)): 3.92% (inactive)

O=C(CSc1nc2ccccc2c(=O)n1-c1c(Cl)cccc1Cl)Nc1nc(-c2ccccc2)cs1
inhibition ([1]; at 100 µM (top of the series)): 1.54% (inactive)

O=C(CSc1nc2ccccc2c(=O)n1-c1ccc(Cl)c(F)c1)c1nc(-c2ccccc2)cs1
inhibition ([1]; at 100 µM (top of the series)): 4.16% (inactive)

O=C(CSc1nc2c(F)cccc2c(=O)n1-c1ccccc1)Nc1ccc2c(c1)CCC2
EC50 [2]: 17.3 µM

O=C(CSc1nc2c(Cl)cccc2c(=O)n1-c1cc(Cl)cc(Cl)c1)Nc1ccc2c(c1)CCC2
inhibition ([1]; at 100 µM (top of the series)): 5.62% (inactive)

N#Cc1ccc(-n2c(SCC(=O)Nc3nc(-c4ccccc4)cs3)nc3ccccc3c2=O)cc1
inhibition ([1]; at 100 µM (top of the series)): 6.44% (inactive)

O=C(CSc1nc2ccccc2c(=O)n1-c1c(Cl)cccc1Cl)c1nc(-c2ccccc2)cs1
inhibition ([1]; at 100 µM (top of the series)): 3.02% (inactive)

Cc1cc(-n2c(SCC(=O)Nc3nc(-c4ccccc4)cs3)nc3ccccc3c2=O)ccc1Cl
inhibition ([1]; at 100 µM (top of the series)): 5.12% (inactive)

O=C(CSc1nc2c(F)cccc2c(=O)n1-c1ccc(Cl)c(Cl)c1)Nc1ccc2c(c1)CCC2
EC50 [2]: 9.43 µM

O=C(CSc1nc2ccccc2c(=O)n1-c1ccc(Cl)c(Br)c1)Nc1nc(-c2ccccc2)cs1
inhibition ([1]; at 100 µM (top of the series)): 4.48% (inactive)

Cc1cc(-n2c(SCC(=O)Nc3nc(-c4ccccc4)cs3)nc3ccccc3c2=O)ccc1F
inhibition ([1]; at 100 µM (top of the series)): 4.72% (inactive)

Cc1cc(-n2c(SCC(=O)c3nc(-c4ccccc4)cs3)nc3ccccc3c2=O)ccc1F
inhibition ([1]; at 100 µM (top of the series)): 3.75% (inactive)

Cc1cc(-n2c(SCC(=O)Nc3ccc4c(c3)CCC4)nc3ccccc3c2=O)ccc1Cl
EC50 [2]: 4.22 µM

N#Cc1ccc(-n2c(SCC(=O)Nc3ccc4c(c3)CCC4)nc3ccccc3c2=O)cc1F
inhibition ([1]; at 100 µM (top of the series)): 2.03% (inactive)

O=C(CSc1nc2ccccc2c(=O)n1-c1ccccn1)Nc1ccc2c(c1)CCC2
inhibition ([1]; at 100 µM (top of the series)): 2.47% (inactive)

O=C(CSc1nc2cccc(F)c2c(=O)n1-c1ccc(Cl)c(Cl)c1)Nc1ccc2c(c1)CCC2
EC50 [2]: 15.4 µM
inhibition ([1]; at 100 µM (top of the series)): 3.14% (inactive)

N#Cc1ccc(-n2c(SCC(=O)c3nc(-c4ccccc4)cs3)nc3ccccc3c2=O)cc1
inhibition ([1]; at 100 µM (top of the series)): 3.25% (inactive)
